Activity calls are given as the source filed them.
Tests used:
[1] = HEp-2 cell cytotoxicity, dose response, cytotoxicity control for RSV inhibitor project, HTS (AID 2410); format: functional; details: human respiratory syncytial virus
Protein skinhead-1 = target: T1, Protein skinhead-1 (Caenorhabditis elegans, UniProt P34707); format: functional
T1 sequence (P34707 whole entry): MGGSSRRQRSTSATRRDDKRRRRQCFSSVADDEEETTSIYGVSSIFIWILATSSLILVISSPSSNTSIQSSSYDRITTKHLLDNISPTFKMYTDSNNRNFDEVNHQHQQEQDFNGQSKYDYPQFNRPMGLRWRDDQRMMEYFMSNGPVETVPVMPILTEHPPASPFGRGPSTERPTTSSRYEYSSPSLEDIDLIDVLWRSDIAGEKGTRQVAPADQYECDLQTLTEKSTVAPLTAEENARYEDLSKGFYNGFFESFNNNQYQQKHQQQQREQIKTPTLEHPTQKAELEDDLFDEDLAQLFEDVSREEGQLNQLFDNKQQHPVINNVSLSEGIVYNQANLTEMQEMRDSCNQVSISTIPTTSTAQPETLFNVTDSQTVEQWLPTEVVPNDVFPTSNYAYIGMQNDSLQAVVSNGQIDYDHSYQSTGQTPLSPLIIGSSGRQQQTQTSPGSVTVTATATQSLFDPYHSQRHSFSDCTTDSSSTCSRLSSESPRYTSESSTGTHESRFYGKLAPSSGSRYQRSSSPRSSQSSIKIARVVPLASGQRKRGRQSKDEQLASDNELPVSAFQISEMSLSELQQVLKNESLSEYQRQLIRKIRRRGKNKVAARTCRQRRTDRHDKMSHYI

Streptococcus = assay: Group A Streptococcus viability loss, dose response, counter-screen for streptokinase expression inhibitor project, luminescence, BacTiterGlo (AID 1915); format: functional, organism-based;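 further: potency for reduction of bacterial viability or growth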
[2] = system: Streptococcus sp. 'group A'; assay: growth inhibition of control SK(-) GAS strain, dose response, counter-screen for streptokinase expression inhibitor project, luminescence, kanamycin, BacTiterGlo, confirmation (AID 1900); format: functional, organism-based
Streptokinase A = target: T2, Streptokinase A (Streptococcus pyogenes serotype M1, UniProt P10520); assay: S. pyogenes streptokinase expression inhibitors, potency, dose response, plasminogen activation absorbance, OD405 (AID 1914); format: functional, Streptococcus pyogenes M1 GAS;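 further: secreted streptokinase activity via plasminogen activation per viability signal from cell pellet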
T2 sequence (P10520 whole entry): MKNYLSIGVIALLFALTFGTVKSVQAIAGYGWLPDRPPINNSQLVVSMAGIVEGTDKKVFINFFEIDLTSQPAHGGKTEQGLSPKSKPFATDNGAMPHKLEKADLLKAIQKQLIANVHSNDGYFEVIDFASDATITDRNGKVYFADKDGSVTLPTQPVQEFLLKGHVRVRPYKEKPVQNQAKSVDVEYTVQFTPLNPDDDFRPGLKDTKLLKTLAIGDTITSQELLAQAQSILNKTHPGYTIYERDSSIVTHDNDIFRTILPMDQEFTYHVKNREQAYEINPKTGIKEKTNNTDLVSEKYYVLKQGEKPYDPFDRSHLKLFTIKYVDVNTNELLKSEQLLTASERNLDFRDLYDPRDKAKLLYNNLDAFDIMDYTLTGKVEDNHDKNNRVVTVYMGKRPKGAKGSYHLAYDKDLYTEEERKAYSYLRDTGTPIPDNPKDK

[3] = target: T3, Rac GTPase-activating protein 1 (Homo sapiens, UniProt Q9H0H5); assay: MgcRacGAP GTPase-activating activity inhibitors, confirmation, biochemical, ADP Hunter fluorescence, primary and confirmatory (AID 624330); format: functional
T3 sequence (Q9H0H5 whole entry): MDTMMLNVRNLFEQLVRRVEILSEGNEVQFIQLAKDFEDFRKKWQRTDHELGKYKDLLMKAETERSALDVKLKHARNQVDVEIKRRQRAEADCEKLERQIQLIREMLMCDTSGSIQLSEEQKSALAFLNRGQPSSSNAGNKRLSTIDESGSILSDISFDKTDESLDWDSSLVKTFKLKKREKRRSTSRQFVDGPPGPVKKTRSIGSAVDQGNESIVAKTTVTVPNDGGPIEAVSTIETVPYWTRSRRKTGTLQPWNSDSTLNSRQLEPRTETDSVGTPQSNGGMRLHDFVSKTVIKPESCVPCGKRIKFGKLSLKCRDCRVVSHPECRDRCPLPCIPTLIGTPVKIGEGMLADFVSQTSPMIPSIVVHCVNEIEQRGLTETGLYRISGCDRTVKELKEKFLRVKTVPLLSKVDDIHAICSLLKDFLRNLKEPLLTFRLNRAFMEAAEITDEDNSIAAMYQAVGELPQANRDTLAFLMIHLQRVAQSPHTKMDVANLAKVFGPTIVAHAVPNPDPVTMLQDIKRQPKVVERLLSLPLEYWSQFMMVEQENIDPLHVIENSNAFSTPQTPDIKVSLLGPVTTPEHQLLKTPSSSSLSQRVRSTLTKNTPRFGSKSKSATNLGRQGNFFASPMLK

[4] = Luminescence Cell-Based Dose Response HTS to Identify Activators of Luciferase Translation or Activity in H4 […] Cells. [Related pubchem assays: 1829 (Project Summary), 1814 (Primary HTS)]; format: functional
H4 = assay: Luminescence Cell-Based Dose Response HTS to Identify Activators of 5'UTR Stem-Loop Driven Prion Protein mRNA Translation in H4 Neuroglioblastoma Cells. [Related pubchem assays: 1829 (Project Summary), 1814 (Primary HTS)]; format: functional; details: Homo sapiens
Protein RecA = target: T4, Protein RecA (Mycobacterium tuberculosis, UniProt P9WHJ3); assay: Fluorescence Cell-Free Homogeneous Dose Retest to Identify Inhibitors of RecA-Intein Splicing Activity. [Related pubchem assays (depositor defined):AID2097, AID2223, AID489010, AID492950]; format: functional
T4 sequence (P9WHJ3 whole entry): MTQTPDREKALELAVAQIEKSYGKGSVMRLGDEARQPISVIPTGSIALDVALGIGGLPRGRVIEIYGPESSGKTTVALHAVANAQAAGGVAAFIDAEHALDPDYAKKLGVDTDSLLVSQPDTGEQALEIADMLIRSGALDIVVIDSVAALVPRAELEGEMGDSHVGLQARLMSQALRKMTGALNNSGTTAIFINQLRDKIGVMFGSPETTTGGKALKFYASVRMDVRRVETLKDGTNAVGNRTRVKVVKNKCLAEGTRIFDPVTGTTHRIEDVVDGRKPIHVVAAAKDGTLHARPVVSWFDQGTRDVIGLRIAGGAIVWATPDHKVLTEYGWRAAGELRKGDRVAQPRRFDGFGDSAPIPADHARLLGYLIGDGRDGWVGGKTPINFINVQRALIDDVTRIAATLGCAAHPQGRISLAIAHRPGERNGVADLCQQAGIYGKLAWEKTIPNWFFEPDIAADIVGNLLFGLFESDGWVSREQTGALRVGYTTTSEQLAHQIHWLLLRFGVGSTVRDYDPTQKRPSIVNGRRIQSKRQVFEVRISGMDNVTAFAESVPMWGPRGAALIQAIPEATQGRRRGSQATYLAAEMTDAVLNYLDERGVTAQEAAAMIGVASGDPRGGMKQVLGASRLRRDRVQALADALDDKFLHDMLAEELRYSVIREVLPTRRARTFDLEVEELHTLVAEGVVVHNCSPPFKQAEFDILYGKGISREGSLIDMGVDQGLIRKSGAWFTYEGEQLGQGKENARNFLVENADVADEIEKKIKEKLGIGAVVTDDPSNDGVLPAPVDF

[5] = target: T5, Replicative DNA helicase DnaB (Mycobacterium tuberculosis, UniProt P9WMR3); assay: DnaB intein splicing inhibitors, dose response, biochemical, cell-free fluorescence (AID 449749); format: functional
T5 sequence (P9WMR3 whole entry): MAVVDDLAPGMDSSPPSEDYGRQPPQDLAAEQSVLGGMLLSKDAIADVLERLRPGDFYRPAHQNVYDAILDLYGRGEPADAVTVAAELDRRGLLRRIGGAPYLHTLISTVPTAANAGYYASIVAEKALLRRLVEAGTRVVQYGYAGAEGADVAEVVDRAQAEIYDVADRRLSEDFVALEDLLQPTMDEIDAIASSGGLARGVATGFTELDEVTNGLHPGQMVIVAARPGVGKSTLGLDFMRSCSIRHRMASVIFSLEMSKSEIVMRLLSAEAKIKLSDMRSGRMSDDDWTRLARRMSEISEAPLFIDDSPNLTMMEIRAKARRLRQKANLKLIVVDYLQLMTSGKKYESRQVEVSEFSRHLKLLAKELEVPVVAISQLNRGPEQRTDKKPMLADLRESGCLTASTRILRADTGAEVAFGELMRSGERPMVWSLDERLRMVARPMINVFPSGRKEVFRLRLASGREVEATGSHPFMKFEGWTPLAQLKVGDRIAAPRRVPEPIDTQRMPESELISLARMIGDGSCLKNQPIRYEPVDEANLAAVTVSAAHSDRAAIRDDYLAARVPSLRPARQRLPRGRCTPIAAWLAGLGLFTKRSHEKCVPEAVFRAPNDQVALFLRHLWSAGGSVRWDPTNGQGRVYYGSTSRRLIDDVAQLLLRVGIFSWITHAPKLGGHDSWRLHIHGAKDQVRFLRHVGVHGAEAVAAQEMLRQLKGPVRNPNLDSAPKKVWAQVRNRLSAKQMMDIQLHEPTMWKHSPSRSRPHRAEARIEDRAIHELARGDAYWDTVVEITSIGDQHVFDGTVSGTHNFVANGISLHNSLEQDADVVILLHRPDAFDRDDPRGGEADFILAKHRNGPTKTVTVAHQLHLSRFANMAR

[6] = target: T6, Heat shock factor protein 1 (Mus musculus, UniProt P38532); assay: inhibition of MG132-induced HSE-luciferase signal, confirmation, cell-based, NIH3T3, luminescence, dose retest (AID 2382); format: functional;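 further: NIH3T3 fibroblasts with HSF1-driven luciferase reporter stressed by proteasome inhibitor MG132; luminescence from HSF1-driven luciferase expression after 8 hours of MG132 stress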
T6 sequence (P38532 whole entry): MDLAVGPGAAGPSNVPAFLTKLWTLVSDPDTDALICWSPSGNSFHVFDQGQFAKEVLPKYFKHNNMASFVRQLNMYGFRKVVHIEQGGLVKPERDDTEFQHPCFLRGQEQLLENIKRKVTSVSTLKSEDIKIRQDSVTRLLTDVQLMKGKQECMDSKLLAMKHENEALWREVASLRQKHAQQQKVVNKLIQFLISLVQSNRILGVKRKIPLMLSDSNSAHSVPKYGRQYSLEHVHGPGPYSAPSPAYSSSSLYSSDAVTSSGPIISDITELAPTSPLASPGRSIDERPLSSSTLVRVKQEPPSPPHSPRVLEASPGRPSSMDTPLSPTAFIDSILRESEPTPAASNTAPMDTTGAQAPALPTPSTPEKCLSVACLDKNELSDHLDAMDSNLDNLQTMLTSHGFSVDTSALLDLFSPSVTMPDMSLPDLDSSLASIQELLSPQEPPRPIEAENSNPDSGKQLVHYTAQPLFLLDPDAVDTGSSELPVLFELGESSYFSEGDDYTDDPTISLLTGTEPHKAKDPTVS

Paired box protein Pax-8 = Paired box protein Pax-8 (Homo sapiens, UniProt Q06710); assay: inhibitors of PAX8-driven TPO luciferase reporter, dose response, RMG-I cells, cherry-pick (AID 687027); format: functional, cell-based;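 further: luciferase reporter driven by Pax8 target thyroperoxidase promoter measured by SteadyGlo luminescence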
Chain of Paired box protein Pax-8 (Q06710 whole entry): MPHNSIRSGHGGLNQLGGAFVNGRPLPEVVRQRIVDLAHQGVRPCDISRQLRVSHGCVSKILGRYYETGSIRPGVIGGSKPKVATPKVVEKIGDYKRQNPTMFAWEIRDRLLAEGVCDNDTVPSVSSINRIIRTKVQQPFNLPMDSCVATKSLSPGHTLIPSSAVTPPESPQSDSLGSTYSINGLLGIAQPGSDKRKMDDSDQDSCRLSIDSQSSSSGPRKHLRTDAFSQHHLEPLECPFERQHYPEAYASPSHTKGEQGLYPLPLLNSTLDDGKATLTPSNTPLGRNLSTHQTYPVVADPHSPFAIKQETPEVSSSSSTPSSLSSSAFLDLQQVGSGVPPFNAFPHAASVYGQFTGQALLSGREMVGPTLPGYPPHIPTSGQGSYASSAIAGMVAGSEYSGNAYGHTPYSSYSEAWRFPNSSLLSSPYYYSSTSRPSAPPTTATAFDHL

Row | Structure (SMILES) | CC50 [1] | IC50 (Protein skinhead-1) | other results
1 | CC(=O)c1ccc(NCC2COc3ccccc3O2)c([N+](=O)[O-])c1 (stereo unspecified) | > 50 µM (active) | – | –
2 | Cc1[nH]c2ccccc2c1SCc1ccccc1 | – | 42.6 µM (active) | –
3 | O=C(Nc1ccc2c(c1)CCC2)c1ccc(Cl)nc1 | 36.7 µM (active) | – | –
4 | Cc1ccc2c(c1)CCCN2C(=O)CSc1ccccc1 | 47.2 µM (active) | – | –
5 | COc1ccc(C2CC(c3ccccc3)=NN2C(=O)c2cccs2)cc1 (stereo unspecified) | – | > 100 µM (inactive) | EC50 (Streptococcus): 12.4 µM (active); EC50 [2]: 4.88 µM (active); EC50 (Streptokinase A): > 150 µM (not active)
6 | O=S(=O)(c1ccccc1C(F)(F)F)N1CCC(c2nc(O)c3nnn(Cc4cccc(F)c4)c3n2)CC1 | 32.2 µM (active) | – | –
7 | O=C1C=C(c2ccc3ncccc3c2)C[C@@H](c2ccc(F)cc2)C1 | 30 µM (active) | – | –
8 | COc1ccc2nc(-c3ccc(Cl)cc3)cc(C(=O)O)c2c1 | 19.9 µM (active) | – | –
9 | CC(=O)N1CCN(c2ccc(NCc3ccc(C(C)C)cc3)cc2)CC1 | – | > 100 µM (inactive) | IC50 [3]: 10.4 µM (active)
10 | Fc1ccc(N2CCN(c3cnc4ccccc4n3)CC2)cc1 | – | 72.8 µM (inactive) | EC50 [4]: 0.244 µM (active); EC50 (H4): 12.8 µM (active)
11 | CC(C)C(c1nnnn1Cc1ccco1)N1CCN(C2CCCC2)CC1 (stereo unspecified) | – | > 100 µM (inactive) | –
12 | Cc1cc(O)ccc1Nc1nc(-c2cccs2)cs1 | 21 µM (active) | – | EC50 (Protein RecA): 11.5 µM (active); IC50 [3]: 46.5 µM (active); AC50 [5]: 13.2 µM (active)
13 | Cc1cc(Nc2ccccc2C(=O)O)n(-c2cccc(Cl)c2)n1 | 30.9 µM (active) | – | –
14 | O=C(NCc1ccco1)c1sc2cc(Cl)ccc2c1Cl | – | > 100 µM (inactive) | –
15 | CCc1ccc(Nc2oc(C)cc(=O)c2C(C)=O)cc1 | – | > 100 µM (inactive) | –
16 | CN1/C(=C\C(=O)Nc2cccc(Cl)c2)C(C)(C)c2ccccc21 | – | > 100 µM (inactive) | –
17 | COc1ccccc1C(=O)Nc1ccc2c(c1)nc(CCNC(=O)c1ccccc1)n2C | – | > 100 µM (inactive) | –
18 | CCCCCOC(=O)c1ccc(NC(=O)c2ccco2)cc1 | – | > 100 µM (inactive) | –
19 | Oc1onc(-c2ccccc2)c1-c1ccccc1 | – | – | EC50 [6]: > 195 µM (not active)
20 | CCCNC(=O)NC1C(NC(=O)NCCC)N(C)C(=O)N1C (stereo unspecified) | – | – | EC50 [6]: > 195 µM (not active)
21 | CC(C)CCNC(=O)NC(=O)COc1c(F)c(F)cc(F)c1F | – | > 100 µM (inactive) | –
22 | Cc1ccc(S(=O)(=O)n2ccc(=O)[nH]2)cc1 | – | – | EC50 [6]: > 195 µM (not active)
23 | CC1Cc2ccccc2N1S(=O)(=O)c1cccc(C(=O)NC2CC2)c1 (stereo unspecified) | > 50 µM (active) | – | –
24 | O=S(=O)(Cc1ccc(Cl)cc1)Oc1ccc(Cl)cc1 | – | > 100 µM (inactive) | –
25 | Cn1nccc1C(=O)N1CCC(Cc2ccccc2)CC1 | – | > 100 µM (inactive) | –
26 | COc1ccc(C(c2nnnn2Cc2ccccc2)N2CCC(n3c(O)nc4ccccc43)CC2)cc1 (stereo unspecified) | – | – | AC50 (Paired box protein Pax-8): 6.91 µM (active)
27 | C/C(=N\NC(=O)C1CC1)c1ccc(Cl)c(Cl)c1 | > 50 µM (active) | – | –

Source: ChEMBL document CHEMBL1201862, “PubChem BioAssay data set” (2004)
